Reference: the NIST ThermoML archive (doi:10.1016/j.jct.2008.09.018)
± gives the expanded uncertainty stated by the source.

How the values were obtained:
[1] = Liquid; for mass density: Vibrating tube method; for speed of sound: Pulse-echo method; for viscosity: Capillary tube (Ostwald / Ubbelohde) method
[2] = refractive index (Na D-line) (dimensionless); settings: 298.15 K; 101.33 kPa; Liquid; Standard Abbe refractometry
[3] = xn = mol fraction of the nth substance listed; settings: 101 kPa, Liquid, x1 = 1; for speed of sound: Pulse-echo method; for viscosity: Capillary tube (Ostwald / Ubbelohde) method; for mass density: Vibrating tube method

## OCCO [1,2-ethanediol]
[1]; 283.15 K, 101.33 kPa
  mass density: 1120.32 ± 0.18 kg/m3
[1]; 285.64 K, 101.33 kPa
  mass density: 1118.6 ± 0.18 kg/m3
[1]; 290.64 K, 101.33 kPa
  mass density: 1115.12 ± 0.17 kg/m3
[1]; 293.14 K, 101.33 kPa
  mass density: 1113.37 ± 0.17 kg/m3
[1]; 293.15 K, 101 kPa
  speed of sound: 1666.7 ± 1.4 m/s
[1]; 295.64 K, 101.33 kPa
  mass density: 1111.62 ± 0.17 kg/m3
[1]; 298.15 K, 101.33 kPa
  viscosity: 16.95 ± 0.14 mPa·s
  speed of sound: 1654.9 ± 1.4 m/s
[1]; 300.65 K, 101.33 kPa
  mass density: 1108.12 ± 0.17 kg/m3
[1]; 303.15 K, 101 kPa
  viscosity: 13.83 ± 0.1 mPa·s
  speed of sound: 1643.1 ± 1.4 m/s
  mass density: 1106.46 ± 0.17 kg/m3
[1]; 303.15 K, 101.33 kPa
  mass density: 1106.37 ± 0.17 kg/m3
[1]; 305.64 K, 101.33 kPa
  mass density: 1104.61 ± 0.17 kg/m3
[1]; 308.15 K, 101 kPa
  viscosity: 11.44 ± 0.083 mPa·s
  speed of sound: 1631.2 ± 1.4 m/s
[1]; 310.65 K, 101.33 kPa
  mass density: 1101.07 ± 0.17 kg/m3
[1]; 313.14 K, 101.33 kPa
  mass density: 1099.3 ± 0.17 kg/m3
[1]; 313.15 K, 101 kPa
  viscosity: 9.565 ± 0.071 mPa·s
  speed of sound: 1619.3 ± 1.4 m/s
  mass density: 1099.23 ± 0.17 kg/m3
[1]; 315.65 K, 101.33 kPa
  mass density: 1097.52 ± 0.17 kg/m3
[1]; 320.64 K, 101.33 kPa
  mass density: 1093.95 ± 0.17 kg/m3
[1]; 323.15 K, 101.33 kPa
  mass density: 1092.15 ± 0.17 kg/m3
[2]
  refractive index: 1.4307 ± 0.0005

## CCCCCCCCCO [nonan-1-ol]
[1]; 283.15 K, 101.33 kPa
  mass density: 834.614 ± 0.25 kg/m3
[1]; 285.64 K, 101.33 kPa
  mass density: 832.923 ± 0.25 kg/m3
[1]; 288.15 K, 101.33 kPa
  mass density: 831.224 ± 0.25 kg/m3
[1]; 290.65 K, 101.33 kPa
  mass density: 829.521 ± 0.25 kg/m3
[1]; 293.14 K, 101.33 kPa
  mass density: 827.816 ± 0.25 kg/m3
[1]; 293.15 K, 101 kPa
  speed of sound: 1381.6 ± 1.6 m/s
[1]; 295.64 K, 101.33 kPa
  mass density: 826.106 ± 0.25 kg/m3
[1]; 298.14 K, 101.33 kPa
  mass density: 824.391 ± 0.25 kg/m3
[1]; 298.15 K, 101.33 kPa
  viscosity: 9.494 ± 0.084 mPa·s
  speed of sound: 1364.4 ± 1.6 m/s
  mass density: 824.48 ± 0.26 kg/m3
[1]; 300.65 K, 101.33 kPa
  mass density: 822.671 ± 0.25 kg/m3
[1]; 303.14 K, 101.33 kPa
  mass density: 820.949 ± 0.25 kg/m3
[1]; 303.15 K, 101 kPa
  viscosity: 7.994 ± 0.068 mPa·s
  speed of sound: 1347.4 ± 1.6 m/s
  mass density: 821.05 ± 0.25 kg/m3
[1]; 305.64 K, 101.33 kPa
  mass density: 819.22 ± 0.25 kg/m3
[1]; 308.14 K, 101.33 kPa
  mass density: 817.486 ± 0.25 kg/m3
[1]; 308.15 K, 101 kPa
  viscosity: 6.713 ± 0.057 mPa·s
  speed of sound: 1330.5 ± 1.6 m/s
  mass density: 817.57 ± 0.25 kg/m3
[1]; 310.64 K, 101.33 kPa
  mass density: 815.748 ± 0.25 kg/m3
[1]; 313.15 K, 101 kPa
  viscosity: 5.657 ± 0.05 mPa·s
  speed of sound: 1313.6 ± 1.6 m/s
  mass density: 814.19 ± 0.25 kg/m3
[1]; 313.15 K, 101.33 kPa
  mass density: 814.001 ± 0.25 kg/m3
[1]; 315.65 K, 101.33 kPa
  mass density: 812.251 ± 0.25 kg/m3
[1]; 318.15 K, 101.33 kPa
  mass density: 810.496 ± 0.25 kg/m3
[1]; 320.65 K, 101.33 kPa
  mass density: 808.73 ± 0.25 kg/m3
[1]; 323.15 K, 101.33 kPa
  mass density: 806.96 ± 0.25 kg/m3
[2]
  refractive index: 1.4323 ± 0.0005

## OCCO [1,2-ethanediol] + CCCCCCCCCO
[3]; 293.15 K
  speed of sound: 1666.7 ± 1.4 m/s
[3]; 298.15 K
  viscosity: 16.95 ± 0.12 mPa·s
  speed of sound: 1654.9 ± 1.4 m/s
[3]; 303.15 K
  viscosity: 13.83 ± 0.1 mPa·s
  speed of sound: 1643.1 ± 1.4 m/s
  mass density: 1106.46 ± 0.17 kg/m3
[3]; 308.15 K
  viscosity: 11.44 ± 0.083 mPa·s
  speed of sound: 1631.2 ± 1.4 m/s
[3]; 313.15 K
  viscosity: 9.565 ± 0.071 mPa·s
  speed of sound: 1619.3 ± 1.4 m/s
  mass density: 1099.23 ± 0.17 kg/m3
